Measurements: patent US20030143634A1, “Method to detect interactions between cellular components in intact living cells, and to extract quantitative information relating to those interactions by fluorescence redistribution” (Biolmage A/S, priority 2001, published 2003)

What was measured:
[1] = biological target: T1, CAD:CAD link between mediator and detectable conjugates (Homo sapiens, UniProt P62942, F37M); assay: 3-part ActinPaint iGRIP system, interaction inhibitor dose-response (extraction procedure, plate reader); assay type: cell-based; conditions: CHO cells
T1 construct: expressed in transfected cells; host or cells: CHO
Source text: (§1) In this specific example, the 3 components of this second system were as follows:
(§2) 1) The anchor conjugate was made by fusing the F-actin binding domain of α-actinin (amino acids 1-133 of full protein sequence) to FRB(T2098L) [ps1570] (also referred to as FRB*). The cellular localization of the anchor could be detected with an antibody directed against the HA-tag included in the anchor fusion protein
(§3) 2) The mediator conjugate [ps1556] comprised wild-type FKBP protein fused to tandem repeats of FKBP(F36M), a mutant form of the protein that is known as FM and also CAD, and the coding plasmid for which was obtained from ARIAD Pharmaceuticals
(§4) 3) The detectable conjugate was made by fusing tandem repeats of CAD to EGFP [ps1547].
(§5) The three conjugates are depicted in diagrammatic form in FIG. 5a. CAD proteins spontaneously homodimerize, so mediator and detectable conjugates are normally linked together in the 3-part system (FIG. 5b). Therefore in this example, the protein interaction to be tested was the CAD:CAD link between mediator and detectable conjugates. […] The link between CAD proteins can be broken by ARIAD compound AP21998 (FIG. 5d). AP21998 was therefore used as the reference compound to validate the system. CHO cells were transfected and cultured essentially as described in Example 2, except the complement of plasmids required for the 2 and 3-part systems were transfected simultaneously rather than sequentially (as described in Example 2).
(§6) For compatibility with high throughput screening the cells were grown in microtitre plates for 16 hours from a seeding density of 1.0×10E5 cells per 400 μL, and an extraction procedure (described in Example 3) was used to remove mobile fluorescent components from cells, so that signal from immobile components could be measured. Plates were routinely stained with the nuclear dye Hoechst 22538 to enable correction of the immobile EGFP fluorescence signal from each well for cell density. […]
ActinPaint system. […] Plates were processed for extraction and nuclear staining then read in an Ascent plate reader. […]

[2] = biological target: T1, CAD:CAD link between mediator and detectable conjugates; assay: 3-part Histone H2B iGRIP system, interaction inhibitor dose-response (extraction procedure, plate reader); assay type: cell-based; conditions: CHO cells
Source text: as §1
1) The anchor conjugate was made by fusing histone H2B to FRB(T2098L) [ps1569] (also referred to as FRB*). The cellular localization of the anchor could be detected with an antibody directed against the HA-tag included in the anchor fusion protein
as §3, §4
as §5, with “system.” for “system. CHO cells were transfected and cultured essentially as described in Example 2, except the complement of plasmids required for the 2 and 3-part systems were transfected simultaneously rather than sequentially (as described in Example 2).”
(§7) For compatibility with high throughput screening the cells were grown in microtitre plates for 16 hours from a seeding density of 1.0×10E5 cells per 400 μL, and an extraction procedure (described in Example 3) was used to remove mobile fluorescent components from cells, so that signal from immobile components locked in the nucleus could be measured. Plates were routinely stained with the nuclear dye Hoechst 22538 to enable correction of the immobile EGFP fluorescence signal from each well for cell density.
Dose-response of this CAD-interaction inhibitor in the 3-part Histone H2B system could be compared with the compound's efficacy and potency in other systems, to determine if similar sensitivity to the inhibitor (and other inhibitors) could be expected from the Histone H2B system. […] Plates were processed for extraction and nuclear staining then read in an Ascent plate reader. […]

[3] = tested on: transcription factor-based detection system; conditions: data supplied by ARIAD Pharmaceuticals (RPD kit fact sheet); cited from earlier work
FRB(T2098L) and FKBP [4] = biological target: T2, FRB(T2098L) and FKBP (Homo sapiens, UniProt P42345+P62942, T2098L); assay: 2-part Src(1-14) system, response to dimerizer; assay type: cell-based; conditions: CHO cells, 500 nM AP21967 for 60 minutes
T2 construct: expressed in transfected cells; host or cells: CHO
Source text: (§8) The first system consists of 2 parts, an anchor conjugated to FRB(T2098L) [plasmid construct ps1549] and a detectable conjugate comprising FKBP fused to EGFP [ps1208]. […] The 2-part assay also acts as counter screen for any compounds that may directly or indirectly affect the location of the anchor protein itself within the cell.
CHO cells were transfected and cultured essentially as described in Example 2, except the complement of plasmids required for the 2 and 3-part systems were transfected simultaneously rather than sequentially (as described in Example 2).
For selection of co-expressing cells, 2-part system cells transfected with ps1549+ps1208 were cultured with 1 mg/ml zeocin+5 μg/ml blasticidin HCl. Cells of the 3-part system were cultured with 1 mg/ml zeocin+5 μg/ml blasticidin HCl+0.5 mg/ml G418 sulphate.
This redistribution response to dimerizer is robust and can be competed by FK506. In the 3-part system, the response can also be competed by compound AP21998.
Without dimerizer present in the medium, cells from both 2- and 3-part Src(1-14) systems display a more or less uniform distribution of GFP fluorescence, throughout cytoplasmic and nuclear compartments (FIGS. 23a and 24a). Dimerizer addition results in recruitment of the CAD-linked mediator+detectable complexes to the plasma membrane (FIGS. 23b and 24b). […]

FRB(T2098L) and FKBP [5] = biological target: T2, FRB(T2098L) and FKBP; assay: 3-part ActinPaint iGRIP system, response to dimerizer; assay type: cell-based; conditions: CHO cells, 800 nM AP21967, 37° C.
Source text: as §1, §2, §3, §4
The three conjugates are depicted in diagrammatic form in FIG. 5a. […]
as §6

FRB(T2098L) and FKBP [6] = biological target: T2, FRB(T2098L) and FKBP; assay: 2-part Histone H2B system, response to dimerizer and competition by FK506; assay type: cell-based; conditions: CHO cells
Description: The 2-part assay also acts as counter screen for any compounds that may directly or indirectly affect the location of the anchor protein itself within the cell.
as §7
(§9) Signals from immobile EGFP-labelled components and from the nuclear stain were read on an fluorescence plate reader (Fluoroskan Ascent CF, Labsystems, Finland) equipped with appropriate filter sets (EGFP: excitation 485 nm, emission 527 nm; Hoechst 22538: excitation 355 nm, emission 460 nm).

FRB(T2098L) and FKBP [7] = biological target: T2, FRB(T2098L) and FKBP; assay: 2-part ActinPaint system, response to dimerizer; assay type: cell-based; conditions: CHO cells
Description: as §8, with “ps1570]” for “ps1549]”, “[ps1208]—these conjugates are depicted in FIG. 4a.” for “[ps1208].”
For compatibility with high throughput screening the cells were grown in microtitre plates for 16 hours from a seeding density of 1.0×10E5 cells per 400 μL, and an extraction procedure (described in Example 3) was used to remove mobile fluorescent components from cells, so that signal from immobile components could be measured. Plates were routinely stained with the nuclear dye Hoechst 22538 to enable correction of the immobile EGFP fluorescence signal from each well for cell density.
as §9, with “nm). […] For further experiments a dimerizer concentration of 800 nM for 2 hours was selected as giving adequate signal to background for extracted cells to be read on the Ascent plate reader.” for “nm).”

FRB(T2098L) and FKBP [8] = biological target: T2, FRB(T2098L) and FKBP; assay: 3-part Src(1-14) system, response to dimerizer; assay type: cell-based; conditions: CHO cells, 500 nM AP21967 for 120 minutes
Source text: as §1
1) The anchor conjugate was made by fusing c-Src(1-14) to FRB(T2098L) [ps1549]. The cellular localization of the anchor could be detected with an antibody directed against the HA-tag included in the anchor fusion protein
as §3, §4
as §5, with “CHO cells were transfected and cultured essentially as described in Example 2, except the complement of plasmids required for the 2 and 3-part systems were transfected simultaneously rather than sequentially (as described in Example 2).” left out
Without dimerizer present in the medium, cells from both 2- and 3-part Src(1-14) systems display a more or less uniform distribution of GFP fluorescence, throughout cytoplasmic and nuclear compartments (FIGS. 23a and 24a). […]

[9] = AP21998 greater than 5 μM plus 800 nM AP21967, 2 hours
[10] = 1000 nM AP21967, 2 hours, extraction procedure

Row | EGFP-label remaining on the F-actin aggregates [1, 9] | EC50 ([1]; co-treated with 800 nM AP21967, 2 hours, 37° C., read-out: EC50 for the prevention of recruitment / removal of EGFP-labelled components from the F-actin aggregates) [nM] | EGFP distribution in micrograph (FIG. 15c) ([2]; 800 nM AP21967 + 5 μM AP21998 for 2 hours) | EGFP-label remaining in the nuclei [2, 9] | EC50 ([2]; co-treated with 800 nM AP21967, 2 hours, 37° C., read-out: EC50 for the prevention of recruitment / removal of EGFP-labelled components from the nuclear compartment) [nM] | EGFP distribution in micrograph (FIG. 23b) (FRB(T2098L) and FKBP [4]) | time after which EGFP labelling of aggregates is clearly visible (FRB(T2098L) and FKBP [5]) [min] | time after which recruitment of fluorescence to the nuclei is visible (FRB(T2098L) and FKBP [6]; 800 nM AP21967, 37° C.) [min] | time to maximum response (recruitment to nuclei) (FRB(T2098L) and FKBP [6]; 800 nM AP21967, 37° C.) | increase of signal from immobile EGFP-labelled components relative to untreated cells (FRB(T2098L) and FKBP [6]; [10]) | time after which recruitment of fluorescence to F-actin aggregates is visible (FRB(T2098L) and FKBP [7]; 800 nM AP21967, 37° C.) [min] | increase of signal from immobile EGFP-labelled components relative to untreated cells (FRB(T2098L) and FKBP [7]; [10]) | EGFP distribution in micrograph (FIG. 24b) (FRB(T2098L) and FKBP [8]) | Compound | EGFP distribution in micrograph (FIG. 7c) ([1]; 5 μM AP21998 for 2 hours after 800 nM AP21967 for 60 minutes, continued presence of AP21967) | EC50 [3] [nM]
1 | no EGFP-label remained on the aggregates | ~1100 | no nuclear accumulation | no EGFP-label remained in the nuclei | ~1800 |  |  |  |  |  |  |  |  | CC[C@H](C(=O)N1CCCCC1C(=O)O[C@H](CCc1ccc(OC)c(OC)c1)c1cccc(OCC(=O)NCCCN(C)C)c1)c1cc(OC)c(OC)c(OC)c1 (stereo partly drawn) [AP21998] | The bright aggregates have dispersed into the cytoplasm | ~200
2 |  |  |  |  |  | recruited to the plasma membrane | 15 | 2 | approximately 10 minutes | approximately 2 fold | 2 | approximately 3 fold | recruited to the plasma membrane | CO[C@H]1[C@@H](O)[C@H](C)C[C@H](C)/C=C/C=C/C=C(\C)[C@@H](c2c[nH]c3c(C)cccc23)C[C@@H]2CC[C@@H](C)[C@@](O)(O2)C(=O)C(=O)N2CCCC[C@H]2C(=O)O[C@H]([C@H](C)C[C@@H]2CC[C@@H](O)[C@H](OC)C2)C[C@H](O)[C@H](C)/C=C(\C)[C@H]1O [AP21967] |  | 
